Calls of active or inactive are those of the source. The calls are words filed in the database; no cut-off is given here. Starred links: 1 amine or outer side, 2 acyl side, 3 side chain; linkers in the order of their positions; H or OH if unused. Positions of bridges follow the written chain, without caps; N, C: chain ends. Non-standard residues stand in square brackets, D forms with d. Residues, ends and D or L forms follow the SMILES beside them. NMehTyr = CN[C@@H](CCc1ccc(O)cc1)C(=O)O; X1 = NC(=O)N[C@H](CCCCN[*:1])C(=O)[*:2]; hTyr = N[C@@H](CCc1ccc(O)cc1)C(=O)O; NMeA = CN[C@@H](C)C(=O)O; CO = O=C([*:1])[*:2]
What was measured:
Carboxypeptidase A1 [1] = biological target: T1, Carboxypeptidase A1 (Homo sapiens, UniProt P15085); test: Inhibition of carboxypeptidase A (unknown origin) assessed as reduction in degradation of N-(4-methoxyphenylazoformyl)-Phe-OH using N-(4-methoxyphenylazoformyl)-Phe-OH as substrate
T1 sequence (P15085 whole entry): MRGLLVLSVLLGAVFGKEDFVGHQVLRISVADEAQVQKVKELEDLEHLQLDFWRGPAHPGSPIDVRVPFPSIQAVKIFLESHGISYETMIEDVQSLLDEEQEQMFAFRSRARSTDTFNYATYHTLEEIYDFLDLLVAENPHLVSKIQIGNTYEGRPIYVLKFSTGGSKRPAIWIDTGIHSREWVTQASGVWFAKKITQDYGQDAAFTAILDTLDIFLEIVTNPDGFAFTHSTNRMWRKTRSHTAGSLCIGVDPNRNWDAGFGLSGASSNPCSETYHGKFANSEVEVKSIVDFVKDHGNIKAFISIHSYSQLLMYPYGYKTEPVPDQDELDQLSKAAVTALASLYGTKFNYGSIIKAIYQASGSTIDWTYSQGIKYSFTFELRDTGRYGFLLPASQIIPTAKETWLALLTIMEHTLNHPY

Carboxypeptidase A1 [2] = biological target: T1, Carboxypeptidase A1; test: Inhibition of carboxypeptidase A (unknown origin)
[3] = biological target: T2, Carboxypeptidase A1 (Homo sapiens) (UniProt P15085); test: Inhibition of carboxypeptidase A (unknown origin) assessed as reduction in degradation of N-(4-methoxyphenylazoformyl)-Phe-OH at > 10 uM using N-(4-methoxyphenylazoformyl)-Phe-OH as substrate; settings: dose microM >10
T2 sequence (whole entry): T1 sequence (P15085 whole entry)

Carboxypeptidase A1 [4] = biological target: T1, Carboxypeptidase A1; test: Inhibition of carboxypeptidase A (unknown origin) assessed as reduction in hydrolysis of hippuryl-L-phenylalanine using hippuryl-L-phenylalanine as substrate
Carboxypeptidase A1 [5] = biological target: T3, Carboxypeptidase A1 (Bos taurus, UniProt P00730); test: Inhibition of carboxypeptidase A in bovine pancreas assessed as reduction in hydrolysis of hippuryl-L-phenylalanine using hippuryl-L-phenylalanine as substrate measured after 2 hrs; assay type: tissue-based
T3 sequence (P00730 whole entry): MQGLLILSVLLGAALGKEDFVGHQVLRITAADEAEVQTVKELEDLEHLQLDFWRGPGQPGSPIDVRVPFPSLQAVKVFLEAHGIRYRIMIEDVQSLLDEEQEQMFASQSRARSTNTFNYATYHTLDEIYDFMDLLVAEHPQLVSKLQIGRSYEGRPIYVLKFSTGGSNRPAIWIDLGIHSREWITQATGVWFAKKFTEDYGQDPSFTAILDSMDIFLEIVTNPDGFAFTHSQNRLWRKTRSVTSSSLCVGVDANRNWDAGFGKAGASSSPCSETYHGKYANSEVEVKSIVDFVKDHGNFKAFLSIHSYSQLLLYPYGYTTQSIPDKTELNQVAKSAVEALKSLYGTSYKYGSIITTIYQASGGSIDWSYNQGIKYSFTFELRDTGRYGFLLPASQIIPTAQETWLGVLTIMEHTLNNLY

Row | IC50 (Carboxypeptidase A1 [1]) | SMILES | further results
1 | 6.74 µM | CC(C)[C@@H]1NC(=O)[C@H](NC(N)=O)CCCCNC(=O)[C@H](Cc2ccccc2)NC(=O)[C@H](C)N(C)C(=O)[C@H](CCc2ccc(O)cc2)NC1=O (cyclo(F[X1]V[hTyr][NMeA])) | 
2 | > 11 µM | CC[C@H](C)[C@@H]1NC(=O)[C@H](CCc2ccc(O)cc2)N(C)C(=O)[C@H](CCc2ccc(O)cc2)NC(=O)[C@H](C(C)C)NC(=O)[C@H](NC(=O)N[C@@H](CCCNC(=N)N)C(=O)O)CCCCNC1=O [ANABAENOPEPTIN 908] ({Arg-CO}-[dK]V[hTyr][NMehTyr]I; lactam 1-C) | IC50 (Carboxypeptidase A1 [2]): > 22 µM; inhibition [3]: Active
3 | > 24 µM | CC(C)[C@@H]1NC(=O)[C@H](NC(=O)N[C@@H](CCCNC(=N)N)C(=O)O)CCCCNC(=O)[C@H](Cc2ccccc2)NC(=O)[C@H](C)N(C)C(=O)[C@H](CCc2ccc(O)cc2)NC1=O [ANABAENOPEPTIN B] ({Arg-CO}-[dK]V[hTyr][NMeA]F; lactam 1-C) | 
4 | > 24 µM | CC[C@H](C)[C@@H]1NC(=O)[C@H](NC(=O)N[C@@H](CCCNC(=N)N)C(=O)O)CCCCNC(=O)[C@H](Cc2ccccc2)NC(=O)[C@H](C)N(C)C(=O)[C@H](CCc2ccc(O)cc2)NC1=O [ANABAENOPEPTIN F] ({Arg-CO}-[dK]I[hTyr][NMeA]F; lactam 1-C) | 
5 |  | CC[C@H](C)[C@@H]1NC(=O)[C@H](NC(=O)N[C@@H](Cc2ccc(O)cc2)C(=O)O)CCCCNC(=O)[C@H]([C@@H](C)CC)NC(=O)[C@H](CCc2ccc(O)cc2)N(C)C(=O)[C@H](CCc2ccc(O)cc2)NC1=O [ANABAENOPEPTIN G] ({Tyr-CO}-[dK]I[hTyr][NMehTyr]I; lactam 1-C) | IC50 (Carboxypeptidase A1 [4]): 0.002 µM
6 | 10.2 µM | CC[C@H](C)[C@@H]1NC(=O)[C@H](NC(=O)N[C@@H](CCCNC(=N)N)C(=O)O)CCCCNC(=O)[C@H]([C@@H](C)CC)NC(=O)[C@H](CCc2ccc(O)cc2)N(C)C(=O)[C@H](CCc2ccc(O)cc2)NC1=O [ANABAENOPEPTIN H] ({Arg-CO}-[dK]I[hTyr][NMehTyr]I; lactam 1-C) | 
7 |  | CC[C@H](C)[C@H](NC(=O)N[C@@H]1CCCCNC(=O)[C@H]([C@@H](C)CC)NC(=O)[C@H](CCc2ccc(O)cc2)N(C)C(=O)[C@H](CCc2ccc(O)cc2)NC(=O)[C@H](C(C)C)NC1=O)C(=O)O [ANABAENOPEPTIN T] ({Ile-CO}-[dK]V[hTyr][NMehTyr]I; lactam 1-C) | IC50 (Carboxypeptidase A1 [5]): 2.3 µM
